Experimental data from paper PMC12587390, “Metabolite Identification Data in Drug Discovery, Part 1: Data Generation and Trend Analysis” (Molecular Pharmaceutics, 2025).
Values after ≈ are worked out from the molar mass of the structure shown.

Assays:
human hepatocytes [1] = assay: Metabolic stability in human hepatocytes (HH CLint); type: in vitro ADME; conditions: 37 °C, 2 h
Procedure: Metabolic stability in human hepatocytes (HH CLint) was measured by incubating the cells with the test compound at 37 °C for 2 h. An aliquot of the mixture was taken at typically nine defined time points, and the metabolic reaction was stopped by adding ACN. The samples were centrifuged, and the supernatant was analyzed via LC-MS/MS. Intrinsic clearance (CLint) was calculated from the disappearance rate of the parent compound. ,

human hepatocytes [2] = assay: Metabolite identification in human hepatocyte incubations; type: in vitro ADME; conditions: 4 μM
Procedure: Cryopreserved, pooled primary human, dog, and rat hepatocytes were obtained from BioIVT (previously Celsis IVT). L-15 Leibovitz buffer was placed in a water bath to reach 37 °C. Cryopreserved hepatocytes were transferred from a −150 °C freezer on dry ice and immediately immersed in a preheated water bath kept at 37 °C for thawing. When only a small ice crystal could be seen, the content was emptied into a 50 mL falcon tube filled with warm buffer (maximum four vials/falcon tube). The suspension was centrifuged at room temperature for 3 min at 50 g. The supernatant was removed, the pellet was resuspended in a small volume of buffer, and the falcon tube was refilled with buffer, followed by another centrifugation to wash away any remaining storage buffer. Thereafter, the supernatant was removed, and the pellet was dissolved in a small volume of buffer and diluted to a concentration of about 3–5 million cells/mL. After counting the cells using a Casy cell counter, the suspension was diluted to 1 million viable cells/mL and kept at room temperature until use. The viability cutoff was 80%.
An aliquot of 245 μL of hepatocyte suspension was added to a round-bottomed 96-deep-well plate using a manual multipipette. The deep-well plate was preincubated for 15 min at 37 °C and 13 Hz. Substrate solutions of the assay compounds were prepared by the robot in a 96-well plate as follows: 4 μL of 10 mM DMSO stock solution, followed by the addition of 96 μL of ACN:water (1:1, v:v) and mixing by shaking. 50 μL from each well were transferred to and combined in a new plate, resulting in 100 μL per well and a dilution of 1:1.
The reaction was started by the addition of 5 μL of 200 μM substrate solution to the preheated hepatocyte suspension, resulting in a final substrate concentration of 4 μM (0.04% DMSO, <0.5% ACN). The incubation was continued at 37 °C and 13 Hz. At each time point (0, 40, and 120 min), a 50 μL sample was taken out and quenched in 200 μL of cold ACN:methanol (1:1, v:v), and the stopped plates were centrifuged for 20 min (set at 4 °C and 4000 g). The supernatant was diluted by taking 50 μL and mixing it with 100 μL of water. Incubations of the positive controls, albendazole and dextromethorphan, were performed in parallel as described above.
Structural characterization of metabolites and metabolite profiling were performed using the Waters Acquity ultraperformance liquid chromatography (UPLC) system fitted to a Waters High-Resolution Mass Spectrometer (MS) (Xevo G2-S, Synapt G2-Si, or a Synapt XS MS). The Waters MS systems, equipped with an electrospray ionization (ESI) source, were operated in positive-ion sensitivity mode over a mass range m/z 50–1200 and in negative-ion sensitivity mode over a mass range m/z of 50–1200.
The reversed-phase gradient elution was performed on an Acquity U(H)-PLC BEH C18 column (2.1 × 100 mm, 1.7 μm, Waters) set at 45 °C. The mobile phases consisted of 0.1% FA in water (A) and ACN (B). […] The injection volume was 2 μL. The MS settings were optimized for the respective MS instrument. […] A scan time of 0.1 s was used, and data were acquired in centroid mode. Collision energy was set to “off” for the low-energy function, whereas in the high-energy MSe functions, the collision energies were typically ramped from 15 to 35 V in the trap cell, with constant collision energies of 20 V in their transfer cells. Cone voltage was set to 25 V for both low- and high-energy functions. For dedicated MS/MS, the m/z of the molecular ion was selected in the quadrupole, and the mass range for fragmentation analysis was typically set between 50 and 1200. The collision energies were either the same as those stated above for MSe data generation or optimized for a specific metabolite.

physchem [3] = conditions: pH 7.4
Procedure: (§1) LogD was measured using the traditional shake-flask method, with up to ten compounds pooled together. The compounds were dissolved in 10 mM sodium phosphate buffer adjusted to pH 7.4 and an octanol phase (both phases were mixed for 2 h at room temperature). The concentrations in both phases were analyzed by liquid chromatography and quantitative tandem mass spectrometry (LC-MS/MS), and distribution coefficients were determined.

physchem [4] = conditions: 25 °C, pH 7.4, aqueous buffer, thermodynamic from solid
Procedure: (§2) Solubility was measured as the thermodynamic solubility using a shake-flask approach. Here, DMSO was evaporated from the compound stock solution as the first step. The “dried” compounds were then placed into 10 mM sodium phosphate buffer, adjusted to pH 7.4, and equilibrated at 25 °C for 24 h. The samples were centrifuged, and the solution was analyzed by LC-MS/MS to determine the amount of compound in solution.

[5] = Thermodynamic solubility, shake-flask; conditions: 10 mM sodium phosphate buffer, 25 °C, pH 7.4, aqueous buffer, thermodynamic from solid
Procedure: as §2

[6] = LogD, shake-flask method (octanol / buffer pH 7.4); conditions: octanol/10 mM sodium phosphate buffer
Procedure: as §1

solubility at 24 h [5] [µM] | logD at 2 h [6] | SMILES | HH CLint (human hepatocytes [1]) [μL/min/1E6] | Metabolites / metabolic pathways identified (human hepatocytes [2]) | logD (physchem [3]) | solubility (physchem [4]) [µM]
– | – | Cn1ncc(NC(=O)C2CCCCC2C(=O)c2ccc(-c3cc[nH]n3)cc2)c1C(F)(F)F (stereo not shown) [Cmpd 25, Cn1ncc(NC(=O)[C@@H]2CCCC[C@H]2C(=O)c2ccc(-c3cc[nH]n3)cc2)c1C(F)(F)F] | 7 | amide hydrolysis was not detected | 3.6 | 80 (≈ 35.6 µg/mL)
99 (≈ 42.3 µg/mL) | 3 | Cn1cc(NC(=O)C2CCCCC2C(=O)c2ccc(-c3cc[nH]n3)cc2)c(C(F)F)n1 (stereo not shown) [Cmpd 27, Cn1cc(NC(=O)[C@@H]2CCCC[C@H]2C(=O)c2ccc(-c3cc[nH]n3)cc2)c(C(F)F)n1] | 9 | amide hydrolysis was not detected | – | –
564 (≈ 237 µg/mL) | 2 | Cn1ncc(NC(=O)C2CCCCC2C(=O)c2ccc(-c3cc[nH]n3)cc2)c1C(N)=O (stereo not shown) [Cmpd 18, Cn1ncc(NC(=O)[C@@H]2CCCC[C@H]2C(=O)c2ccc(-c3cc[nH]n3)cc2)c1C(N)=O] | 4 | the only metabolite identified was the alcohol formed after the reduction of a ketone | – | –
– | – | COc1cc(NC(=O)C2CCCCC2C(=O)c2ccc(-c3cc[nH]n3)cc2)ncn1 (stereo not shown) [Cmpd 17, COc1cc(NC(=O)[C@@H]2CCCC[C@H]2C(=O)c2ccc(-c3cc[nH]n3)cc2)ncn1] | 22 | ketone reduction, aliphatic hydroxylations, N-glucuronidation, amide hydrolysis, and combinations thereof | 3.9 | 22 (≈ 8.92 µg/mL)
